Data reported in publication PMC6175062, “Gaining Mechanistic Insight Into Coproporphyrin I as Endogenous Biomarker for OATP1B‐Mediated Drug–Drug Interactions Using Population Pharmacokinetic Modeling and Simulation” (Clinical Pharmacology and Therapeutics, 2018).
Like-named read-outs stand apart in the source and are kept apart here.

Columns and labels:
[1] = system: OATP1B1; conditions: cited from earlier work
[2] = Population PK model of rifampicin plasma data, healthy subjects; assay type: in vivo, human; conditions: single 600-mg oral dose
Procedure: Individual plasma and urine data were obtained from a previous study in 12 healthy male subjects.6 The study was split into three occasions (OCC1–3) with a 7‐day washout period between OCC1 and 2 and OCC2 and 3. During each occasion, baseline CPI urine and plasma samples were collected (Figure S2). A single 600‐mg oral dose of RIF and a single 5‐mg oral dose of RSV were administered to the volunteers in OCC1 and OCC2, respectively. Finally, in OCC3 the same respective doses of RIF and RSV were coadministered to healthy volunteers. Plasma (RIF, RSV, and CPI) were collected at predefined timepoints over the 24‐h period following administration of RIF and/or RSV. Urine samples were collected over one time interval (−7 to 0 h) for the pretreatment sample (CPI monitored) and two subsequent intervals (0–7 h and 7–24 h) for posttreatment samples of CPI and RSV. The total number of plasma samples for modeling purposes were 276 (OCC1 = 144, OCC3 = 132), 420 (OCC1 = 144, OCC2 = 144, OCC3 = 132), and 264 (OCC2 = 132, OCC3 = 132) for RIF, CPI, and RSV, respectively, whereas the total number of urine samples were 102 (pretreatment = 34, posttreatment = 68) and 44 for CPI and RSV, respectively. No subjects enrolled in the clinical study had OATP1B1*5 or OATP1B1*15 mutations, associated with altered OATP1B1 activity.
Population PK models were developed sequentially for analysis of RIF, CPI, and RSV plasma and urine data using nonlinear mixed‐effects modeling software, NONMEM, with first‐order conditional estimation method.32 Statistical analysis, GOF plots, and other graphical analysis were conducted in MATLAB. The structural models for RIF and RSV (Supplementary Material) were selected based on population PK models available in the literature.34, 35 An exponential model was used to describe interindividual variability random‐effects parameters and IOV was evaluated for the model parameters; occasions were defined as periods of different visits following recruitment or washout periods. Covariates and random‐effects parameters (IIV and IOV) were retained in the models when there was a significant change in objective function and improvement in GOF plots. The incorporation of IIV and IOV in the models is shown in Equation 2: (2) θik=θ⋅e^ηi+κik where θ ik is the parameter for i^th individual on k^th occasion, θ is the population (typical individual) parameter, η i is the parameter that describes the deviation of the i^th individual parameter from the population (IIV), and k ik the parameter that describes the deviation of the i^th individual from the population in addition to η ik at the k^th occasion (IOV). Both random effect parameters (η ik and k ik) are assumed to be randomly distributed with a mean of zero and the variances are estimated during analysis. Proportional or additive or combination of proportional and additive residual error models were investigated for the residuals.
Based on a previously developed population PK model for RIF, a one compartment first order elimination model with transit absorption model was used to describe plasma concentrations of RIF (12). This model was parameterised using clearance (CL), volume of distribution (V), absorption rate constant (ka), mean transit time (MTT) and number of transit compartments (n). In order to account for the interaction between RIF and CPI and RIF and RSV, sequential analysis of plasma and urine data was conducted. […]

[3] = system: OATP1B3; set-up: method as in earlier work; conditions: ref (3, 4), cited from earlier work
[4] = system: OATP1B; test: Model-based rifampicin in vivo OATP Ki using CPI as probe; set-up: species or system human; conditions: for Ki: human, plasma, oral, 600 mg, probe CPI (endogenous biomarker)
Procedure: The plasma concentrations of the endogenous biomarker CPI were described using a turnover model (Equation 3).36 Simultaneous fitting of individual CPI plasma and urine data in the presence and absence of RIF was performed. In the final model, RIF inhibited biliary elimination (CL b,CPI) of CPI, whereas its renal clearance (CL R,CPI) and k syn were not affected. The rate of change of CPI plasma concentration under baseline and RIF condition is shown in Equations 3 and 4, respectively, whereas change in CPI amount in urine over time is shown in Equation 5. (3) dCCPI/dt=[ksyn−CLb,CPI⋅CCPI−CLR,CPI⋅CCPI]⋅1/VCPI (4) dCCPI/dt=[ksyn−CLb,CPI⋅CCPI/1+CRIF/KiCPI−CLR,CPI⋅CCPI]⋅1/VCPI (5) dUCPI/dt=CLR,CPI⋅CCPI where C CPI is its plasma concentration, U CPI is the CPI amount in urine, t is time, k syn is the zero‐order synthesis rate, Ki CPI is RIF transporter inhibition constant using CPI as a probe, V CPI is the volume of distribution of CPI and C RIF is RIF plasma concentration (linked to RIF model). Simulations were also performed to assess the consequences of the hypothetical inhibition of both CPI synthesis (k syn and biliary elimination (CL b,CPI) by inhibitor of interest (details in Supplementary Material).

SMILES: CO[C@H]1/C=C/O[C@@]2(C)Oc3c(C)c(O)c4c(O)c(c(/C=N/N5CCN(C)CC5)c(O)c4c3C2=O)NC(=O)/C(C)=C\C=C\[C@H](C)[C@H](O)[C@@H](C)[C@@H](O)[C@@H](C)[C@H](OC(C)=O)[C@@H]1C [rifampicin]
- IC50 ([1]; substrate Atorvastatin 1 µM, HEK, rifampicin 0.1-630 µM, ref (11)): 2.2 µM
- IC50 ([1]; substrate BSP 0.01 µM, HEK, rifampicin 0.01-100 µM, ref (7)): 2.75 µM
- IC50 ([1]; substrate Coproporphyrin I 0.1 µM, CHO, rifampicin 0.1-100 µM, ref (3)): 3.25 µM
- IC50 ([1]; substrate Coproporphyrin I 0.2 µM, HEK, rifampicin 0.1-100 µM, ref (4)): 0.66 µM
- IC50 ([1]; substrate Coproporphyrin III 0.1 µM, CHO, rifampicin 0.1-100 µM, ref (3)): 4.61 µM
- IC50 ([1]; substrate Coproporphyrin III 0.2 µM, HEK, rifampicin 0.1-100 µM, ref (4)): 0.79 µM
- IC50 ([1]; substrate Fexofenadine 1 µM, HEK, rifampicin 0.01-100 µM, ref (10)): 0.423 µM
- IC50 ([1]; substrate GCDCA-S 1 µM, HEK, rifampicin 0.1-30 µM, ref (5)): 0.39 µM
- IC50 ([1]; substrate Nateglinide 1 µM, HEK, rifampicin 0.01-100 µM, ref (10)): 0.358 µM
- IC50 ([1]; substrate Pitavastatin 0.1 µM, HEK, rifampicin 0.01-100 µM, ref (10)): 1.07 µM
- IC50 ([1]; substrate Pitavastatin 0.1 µM, MDCKII, rifampicin 0.1-100 µM, ref (8)): 1.6 µM
- IC50 ([1]; substrate Pravastatin 10 µM, HEK, rifampicin 0.01-100 µM, ref (10)): 0.653 µM
- IC50 ([1]; substrate Rosuvastatin 0.1 µM, HEK, ref (9)): 1.1 µM
- IC50 ([1]; substrate Rosuvastatin 0.1 µM, MDCKII, rifampicin 0.1-100 µM, ref (8)): 1.1 µM
- IC50 ([1]; substrate Rosuvastatin 1 µM, HEK, rifampicin 0.01-100 µM, ref (10)): 0.952 µM
- IC50 ([1]; substrate Valsartan 1 µM, HEK, rifampicin 0.01-100 µM, ref (10)): 0.377 µM
- IC50 ([1]; substrate [3H]-E1S 0.01 µM, HEK, rifampicin 0.01-100 µM, ref (7)): 6.96 µM
- IC50 ([1]; substrate [3H]-E2G 0.1 µM, HEK, rifampicin 0.01-100 µM, ref (7)): 0.585 µM
- CL, population estimate [2]: 3.97 L/h
- MTT (mean transit time), population estimate [2]: 0.74 h
- V, population estimate [2]: 24.7 L
- n (number of transit compartments), population estimate [2]: 8.63
- ka, population estimate ([2]; 12 healthy males): 2.09 h⁻¹
- IC50 ([3]; read-out: IC50, OATP1B3 transfected cells, CPI as substrate): 0.25 to 1.61 µM
- IC50 ([3]; read-out: IC50, OATP1B3 transfected cells, CPIII as substrate): 0.27 to 1.41 µM
- difference between unbound in vivo Ki from CPI and from RSV ([4]; CPI-based Ki lower): 2 fold
- Ki ([4]; corrected for rifampicin fu plasma 0.11, read-out: in vivo unbound OATP Ki using CPI data): 0.13 µM
- Ki ([4]; total (not corrected for fu), CPI as probe, read-out: KiCPI, total Ki estimated by the model, population estimate (SE%)): 1.15 µM
